Results on five cell lines are retold here after the supplement of paper PMC10307832.

What all share (test): relative viability (nuclei count vs DMSO), 5 days (fraction); higher = more cells survive
Compound in test [1]: CCOC(=O)CCNc1cc(N2CCc3ccccc3CC2)nc(-c2ccccn2)n1 [GSK-J4] + CC(C)C[C@H](NC(=O)[C@H](Cc1ccccc1)NC(=O)c1cnccn1)B(O)O [Bortezomib] (partner 0.002 µM)
A digest of the protocol: (§1)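 Dosing by pin tool came one day after lung cancer cell lines were seeded in 1536-well plates, using either one drug or a fixed anchor-drug dose plus five library-drug doses (not always all listed) in √10 steps. After 5 days, nuclei were counted on 4× images. Relative viability is treated-well nuclei count divided by vehicle-well nuclei count, and values are medians of duplicate plates.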

Compound in test [2]: CN1CCC(CC1)OC2=CC(=C(C=C2)NC3=NC=C4C(=N3)N(C(=O)N4C)C5CCCC5)OC [AZ3146] + N=C(N)NC(=N)NCCc1ccccc1 [Phenformin] (partner 250 µM)
The essentials: as §1

Compound in test [3]: CCOC(=O)CCNc1cc(N2CCc3ccccc3CC2)nc(-c2ccccn2)n1 [GSK-J4] + CC1(C)CCC(c2ccc(Cl)cc2)=C(CN2CCN(c3ccc(C(=O)NS(=O)(=O)c4ccc(N[C@H](CCN5CCOCC5)CSc5ccccc5)c(S(=O)(=O)C(F)(F)F)c4)cc3)CC2)C1 [Navitoclax] (partner 0.5 µM)
A digest of the protocol:
as §1

Compound in test [4]: CCOC(=O)CCNc1cc(N2CCc3ccccc3CC2)nc(-c2ccccn2)n1 [GSK-J4] + Nc1nc2[nH]cc(CCc3ccc(C(=O)N[C@@H](CCC(=O)O)C(=O)O)cc3)c2c(=O)[nH]1 [Pemetrexed] (partner 0.2 µM)
A digest of the protocol:
as §1

As for PC-3 [JPC-3], the relative viability in test [1] (first compound 0.5 µM) stood at 0.77; in test [1] (first compound 1.581 µM), 0.764; in test [1] (first compound 5 µM) it was 0.705; in test [1] (first compound 15.81 µM) it was 0.789; in test [1] (first compound 50 µM), 0.816; in test [2] (first compound 0.08 µM) it was 0.465. For the same cell line, the relative viability in test [2] (first compound 0.253 µM) came to 0.476; in test [2] (first compound 0.8 µM) it was 0.517; in test [2] (first compound 2.53 µM), 0.521; in test [2] (first compound 8 µM), 0.461; in test [3] (first compound 0.5 µM), 0.77; in test [3] (first compound 1.581 µM), 0.742. For the same cell line, the relative viability in test [3] (first compound 5 µM) turned out to be 0.787; in test [3] (first compound 15.81 µM) it was 0.743; in test [3] (first compound 50 µM), 0.753; in test [4] (first compound 0.5 µM) it was 1.14; in test [4] (first compound 1.581 µM), 0.848; in test [4] (first compound 5 µM), 1.03. The values for the relative viability in test [4] (first compound 15.81 µM) and in test [4] (first compound 50 µM) were 0.938 and 0.944, respectively.
PC-14: the relative viability in test [1] (first compound 0.5 µM) was determined as 0.719; in test [1] (first compound 1.581 µM) it was 0.91; in test [1] (first compound 5 µM), 0.973; in test [1] (first compound 15.81 µM), 0.759; in test [1] (first compound 50 µM) it was 0.8; in test [2] (first compound 0.08 µM), 0.563. Also, the relative viability was 0.465 in test [2] (first compound 0.253 µM); 0.579 in test [2] (first compound 2.53 µM); 0.314 in test [2] (first compound 8 µM); 0.939 in test [3] (first compound 0.5 µM); 1.02 in test [3] (first compound 1.581 µM); 0.948 in test [3] (first compound 5 µM). Moreover, the relative viability in test [3] (first compound 15.81 µM) is 1.02; in test [3] (first compound 50 µM), 0.926; in test [4] (first compound 0.5 µM), 0.128; in test [4] (first compound 1.581 µM) it was 0.143; in test [4] (first compound 5 µM) it was 0.13; in test [4] (first compound 15.81 µM), 0.143. Besides, in test [4] (first compound 50 µM), the relative viability is 0.17.
For the cell line RERF-LC-KJ, the relative viability in test [1] (first compound 0.5 µM) was found to be 0.989; in test [1] (first compound 1.581 µM), 0.993; in test [1] (first compound 5 µM), 1.04; in test [1] (first compound 15.81 µM) it was 1.11; in test [1] (first compound 50 µM) it was 0.963; in test [2] (first compound 0.08 µM), 0.395. For the same cell line, the relative viability in test [2] (first compound 0.253 µM) amounted to 0.44; in test [2] (first compound 0.8 µM) it was 0.433; in test [2] (first compound 2.53 µM), 0.432; in test [2] (first compound 8 µM) it was 0.384; in test [3] (first compound 0.5 µM) it was 0.756; in test [3] (first compound 1.581 µM), 1.01. For the same cell line, the relative viability in test [3] (first compound 5 µM) was found to be 0.881; in test [3] (first compound 15.81 µM), 0.795; in test [3] (first compound 50 µM), 0.763; in test [4] (first compound 0.5 µM), 0.472; in test [4] (first compound 1.581 µM), 0.47; in test [4] (first compound 5 µM), 0.448. The relative viability in test [4] (first compound 15.81 µM) is 0.44; in test [4] (first compound 50 µM) it was 0.442.
For SK-LU-1, the relative viability in test [1] (first compound 0.5 µM) was found to be 1.02; in test [1] (first compound 1.581 µM), 1.06; in test [1] (first compound 5 µM), 0.705; in test [1] (first compound 15.81 µM), 0.8; in test [1] (first compound 50 µM), 0.902; in test [2] (first compound 0.08 µM) it was 0.486. Moreover, the relative viability in test [2] (first compound 0.253 µM) came out at 0.512; in test [2] (first compound 0.8 µM) it was 0.424; in test [2] (first compound 2.53 µM), 0.607; in test [2] (first compound 8 µM), 0.345; in test [3] (first compound 0.5 µM), 0.733; in test [3] (first compound 1.581 µM) it was 0.832. In addition, the relative viability turned out to be 0.682 in test [3] (first compound 5 µM); 0.596 in test [3] (first compound 15.81 µM); 0.537 in test [3] (first compound 50 µM); 0.931 in test [4] (first compound 0.5 µM); 0.877 in test [4] (first compound 1.581 µM); 0.85 in test [4] (first compound 5 µM). The relative viability was determined as 0.876 in test [4] (first compound 15.81 µM) and 0.717 in test [4] (first compound 50 µM).
With SW 1573, the relative viability came out at 0.872 in test [1] (first compound 0.5 µM); 0.724 in test [1] (first compound 1.581 µM); 1.08 in test [1] (first compound 5 µM); 1.07 in test [1] (first compound 15.81 µM); 0.898 in test [1] (first compound 50 µM); 0.398 in test [2] (first compound 0.08 µM). For the same cell line, the relative viability in test [2] (first compound 0.253 µM) was 0.407; in test [2] (first compound 0.8 µM), 0.365; in test [2] (first compound 2.53 µM), 0.367; in test [2] (first compound 8 µM), 0.239; in test [3] (first compound 0.5 µM), 0.941; in test [3] (first compound 1.581 µM) it was 1.1. Besides, the relative viability was 0.951 in test [3] (first compound 5 µM); 0.823 in test [3] (first compound 15.81 µM); 0.705 in test [3] (first compound 50 µM); 0.81 in test [4] (first compound 0.5 µM); 0.804 in test [4] (first compound 1.581 µM); 0.768 in test [4] (first compound 5 µM). The relative viability was 0.756 in test [4] (first compound 15.81 µM) and 0.375 in test [4] (first compound 50 µM).
